# Experimental data reported in the kinase profiling compilation of Christmann-Franck et al. (2016).
# How the values were obtained:
# [1] = biological target: PIM2 (human) (UniProt Q9P1W9); test: SelectScreen, TR FRET
# [2] = biological target: PIM1 (human) (UniProt P11309); test: SelectScreen, TR FRET
# [3] = biological target: CDK16 (human) (UniProt Q00536); test: KINOMEscan competition binding; details: compound 10.0 µM
# [4] = biological target: MKNK2 (human) (UniProt Q9HBH9); test: KINOMEscan competition binding; details: compound 10.0 µM
# [5] = biological target: RIOK1 (human) (UniProt Q9BRS2); test: KINOMEscan competition binding; details: compound 10.0 µM
# [6] = biological target: TAOK3 (human) (UniProt Q9H2K8); test: KINOMEscan competition binding; details: compound 10.0 µM
# [7] = biological target: GSK3A (human) (UniProt P49840); test: KINOMEscan competition binding; details: compound 10.0 µM
# [8] = biological target: MINK1 (human) (UniProt Q8N4C8); test: KINOMEscan competition binding; details: compound 10.0 µM
# [9] = biological target: DAPK3 (human) (UniProt O43293); test: KINOMEscan competition binding; details: compound 10.0 µM
# [10] = biological target: CDK7 (human) (UniProt P50613); test: KINOMEscan competition binding; details: compound 10.0 µM
# [11] = biological target: GAK (human) (UniProt O14976); test: KINOMEscan competition binding; details: compound 10.0 µM
# [12] = biological target: MAPK12 (human) (UniProt P53778); test: KINOMEscan competition binding; details: compound 10.0 µM
# [13] = biological target: TYK2 JH2 pseudokinase (human) (UniProt P29597); test: KINOMEscan competition binding; details: compound 10.0 µM
# [14] = biological target: DAPK2 (human) (UniProt Q9UIK4); test: KINOMEscan competition binding; details: compound 10.0 µM
# [15] = biological target: CSNK2A2 (human) (UniProt P19784); test: KINOMEscan competition binding; details: compound 10.0 µM
# [16] = biological target: MYLK (human) (UniProt Q15746); test: KINOMEscan competition binding; details: compound 10.0 µM
# [17] = biological target: HIPK1 (human) (UniProt Q86Z02); test: KINOMEscan competition binding; details: compound 10.0 µM
# [18] = biological target: MAP2K3 (human) (UniProt P46734); test: KINOMEscan competition binding; details: compound 10.0 µM
# [19] = biological target: AAK1 (human) (UniProt Q2M2I8); test: KINOMEscan competition binding; details: compound 10.0 µM
# [20] = biological target: TGFBR2 (human) (UniProt P37173); test: KINOMEscan competition binding; details: compound 10.0 µM
# [21] = biological target: PIK3CG (human) (UniProt P48736); test: KINOMEscan competition binding; details: compound 10.0 µM
# [22] = biological target: TTK (human) (UniProt P33981); test: KINOMEscan competition binding; details: compound 10.0 µM
# [23] = biological target: PLK4 (human) (UniProt O00444); test: KINOMEscan competition binding; details: compound 10.0 µM
# [24] = biological target: ACVR2B (human) (UniProt Q13705); test: KINOMEscan competition binding; details: compound 10.0 µM
# [25] = biological target: STK17A (human) (UniProt Q9UEE5); test: KINOMEscan competition binding; details: compound 10.0 µM
# [26] = biological target: PIM2 (human) (UniProt Q9P1W9); test: KINOMEscan competition binding; details: compound 10.0 µM
# [27] = biological target: STK17B (human) (UniProt O94768); test: KINOMEscan competition binding; details: compound 10.0 µM
# [28] = biological target: PIM1 (human) (UniProt P11309); test: KINOMEscan competition binding; details: compound 10.0 µM
# [29] = biological target: PIM3 (human) (UniProt Q86V86); test: KINOMEscan competition binding; details: compound 10.0 µM
# [30] = biological target: DAPK1 (human) (UniProt P53355); test: KINOMEscan competition binding; details: compound 10.0 µM
# [31] = biological target: TAOK1 (human) (UniProt Q7L7X3); test: KINOMEscan competition binding; details: compound 10.0 µM
# [32] = biological target: ACVR2A (human) (UniProt P27037); test: KINOMEscan competition binding; details: compound 10.0 µM
# [33] = biological target: MYLK4 (human) (UniProt Q86YV6); test: KINOMEscan competition binding; details: compound 10.0 µM
# [34] = biological target: MAPK15 (human) (UniProt Q8TD08); test: KINOMEscan competition binding; details: compound 10.0 µM
# [35] = biological target: RPS6KA4 KD2 (human) (UniProt O75676); test: KINOMEscan competition binding; details: compound 10.0 µM
# [36] = biological target: DYRK1B (human) (UniProt Q9Y463); test: KINOMEscan competition binding; details: compound 10.0 µM
# PIM1 (human), sequence (P11309 whole entry, looked up): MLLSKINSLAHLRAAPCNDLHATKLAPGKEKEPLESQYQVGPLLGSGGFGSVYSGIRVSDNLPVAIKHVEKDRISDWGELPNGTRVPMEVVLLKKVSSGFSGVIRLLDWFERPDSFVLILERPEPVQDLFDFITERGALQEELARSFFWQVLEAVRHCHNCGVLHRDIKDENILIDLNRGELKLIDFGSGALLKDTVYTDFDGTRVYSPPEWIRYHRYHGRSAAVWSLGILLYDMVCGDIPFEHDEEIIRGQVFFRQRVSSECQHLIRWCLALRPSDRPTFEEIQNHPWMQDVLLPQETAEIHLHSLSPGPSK
# PIM2 (human), sequence (Q9P1W9 whole entry, looked up): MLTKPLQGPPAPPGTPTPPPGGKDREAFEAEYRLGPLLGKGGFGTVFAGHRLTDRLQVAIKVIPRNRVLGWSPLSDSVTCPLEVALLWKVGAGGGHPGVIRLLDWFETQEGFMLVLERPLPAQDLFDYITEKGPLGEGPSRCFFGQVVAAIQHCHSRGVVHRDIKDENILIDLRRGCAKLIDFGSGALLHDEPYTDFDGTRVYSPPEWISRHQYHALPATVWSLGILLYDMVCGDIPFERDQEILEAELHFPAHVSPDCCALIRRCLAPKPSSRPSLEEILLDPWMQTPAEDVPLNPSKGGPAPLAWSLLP
# MYLK (human), sequence (Q15746 whole entry, looked up): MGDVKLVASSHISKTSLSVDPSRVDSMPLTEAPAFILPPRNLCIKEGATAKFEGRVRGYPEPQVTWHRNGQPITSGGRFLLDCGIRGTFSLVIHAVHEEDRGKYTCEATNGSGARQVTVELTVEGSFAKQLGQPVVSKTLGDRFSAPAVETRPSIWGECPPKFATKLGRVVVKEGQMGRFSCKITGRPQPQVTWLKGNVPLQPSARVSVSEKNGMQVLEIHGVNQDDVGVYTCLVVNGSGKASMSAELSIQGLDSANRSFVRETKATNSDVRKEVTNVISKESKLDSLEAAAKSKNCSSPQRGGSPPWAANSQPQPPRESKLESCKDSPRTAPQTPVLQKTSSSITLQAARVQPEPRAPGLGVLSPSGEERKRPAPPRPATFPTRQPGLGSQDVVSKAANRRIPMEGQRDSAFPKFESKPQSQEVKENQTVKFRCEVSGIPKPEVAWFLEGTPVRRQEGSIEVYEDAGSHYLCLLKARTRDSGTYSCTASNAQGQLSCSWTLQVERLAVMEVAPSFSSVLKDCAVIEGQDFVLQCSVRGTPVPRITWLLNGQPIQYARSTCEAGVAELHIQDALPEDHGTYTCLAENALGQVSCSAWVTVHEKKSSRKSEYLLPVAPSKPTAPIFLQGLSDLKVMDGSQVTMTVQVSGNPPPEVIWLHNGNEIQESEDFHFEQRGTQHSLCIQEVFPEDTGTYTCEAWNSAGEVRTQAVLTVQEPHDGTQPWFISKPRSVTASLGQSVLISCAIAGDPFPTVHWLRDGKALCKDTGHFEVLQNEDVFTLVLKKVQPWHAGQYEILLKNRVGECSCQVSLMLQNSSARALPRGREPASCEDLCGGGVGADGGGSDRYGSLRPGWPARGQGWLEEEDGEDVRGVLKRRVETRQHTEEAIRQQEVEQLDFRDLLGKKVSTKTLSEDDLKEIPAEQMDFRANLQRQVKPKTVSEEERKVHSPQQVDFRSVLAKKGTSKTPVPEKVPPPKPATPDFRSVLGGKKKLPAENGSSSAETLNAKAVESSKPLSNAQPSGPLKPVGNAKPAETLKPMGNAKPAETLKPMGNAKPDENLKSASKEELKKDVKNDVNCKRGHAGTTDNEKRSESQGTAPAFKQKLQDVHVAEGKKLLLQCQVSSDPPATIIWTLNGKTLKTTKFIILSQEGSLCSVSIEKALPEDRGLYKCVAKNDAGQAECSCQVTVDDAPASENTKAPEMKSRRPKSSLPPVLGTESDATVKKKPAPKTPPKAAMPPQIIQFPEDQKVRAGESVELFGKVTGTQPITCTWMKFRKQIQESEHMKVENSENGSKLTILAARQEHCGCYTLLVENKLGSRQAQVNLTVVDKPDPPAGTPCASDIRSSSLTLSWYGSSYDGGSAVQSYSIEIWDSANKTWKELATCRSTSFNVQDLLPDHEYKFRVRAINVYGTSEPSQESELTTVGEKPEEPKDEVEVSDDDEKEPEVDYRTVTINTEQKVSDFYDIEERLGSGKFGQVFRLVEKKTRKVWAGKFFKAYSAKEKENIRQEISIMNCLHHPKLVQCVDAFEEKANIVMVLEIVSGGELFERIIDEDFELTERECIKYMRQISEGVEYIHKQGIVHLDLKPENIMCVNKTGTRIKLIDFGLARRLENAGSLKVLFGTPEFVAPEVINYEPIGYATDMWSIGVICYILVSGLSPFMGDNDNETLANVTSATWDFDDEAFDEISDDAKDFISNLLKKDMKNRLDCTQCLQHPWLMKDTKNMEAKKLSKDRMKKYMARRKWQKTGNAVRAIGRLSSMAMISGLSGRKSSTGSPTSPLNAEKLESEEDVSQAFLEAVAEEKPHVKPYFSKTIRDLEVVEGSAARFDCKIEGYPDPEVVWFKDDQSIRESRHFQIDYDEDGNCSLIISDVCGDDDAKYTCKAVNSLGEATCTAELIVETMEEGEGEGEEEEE
# TAOK3 (human), sequence (Q9H2K8 whole entry, looked up): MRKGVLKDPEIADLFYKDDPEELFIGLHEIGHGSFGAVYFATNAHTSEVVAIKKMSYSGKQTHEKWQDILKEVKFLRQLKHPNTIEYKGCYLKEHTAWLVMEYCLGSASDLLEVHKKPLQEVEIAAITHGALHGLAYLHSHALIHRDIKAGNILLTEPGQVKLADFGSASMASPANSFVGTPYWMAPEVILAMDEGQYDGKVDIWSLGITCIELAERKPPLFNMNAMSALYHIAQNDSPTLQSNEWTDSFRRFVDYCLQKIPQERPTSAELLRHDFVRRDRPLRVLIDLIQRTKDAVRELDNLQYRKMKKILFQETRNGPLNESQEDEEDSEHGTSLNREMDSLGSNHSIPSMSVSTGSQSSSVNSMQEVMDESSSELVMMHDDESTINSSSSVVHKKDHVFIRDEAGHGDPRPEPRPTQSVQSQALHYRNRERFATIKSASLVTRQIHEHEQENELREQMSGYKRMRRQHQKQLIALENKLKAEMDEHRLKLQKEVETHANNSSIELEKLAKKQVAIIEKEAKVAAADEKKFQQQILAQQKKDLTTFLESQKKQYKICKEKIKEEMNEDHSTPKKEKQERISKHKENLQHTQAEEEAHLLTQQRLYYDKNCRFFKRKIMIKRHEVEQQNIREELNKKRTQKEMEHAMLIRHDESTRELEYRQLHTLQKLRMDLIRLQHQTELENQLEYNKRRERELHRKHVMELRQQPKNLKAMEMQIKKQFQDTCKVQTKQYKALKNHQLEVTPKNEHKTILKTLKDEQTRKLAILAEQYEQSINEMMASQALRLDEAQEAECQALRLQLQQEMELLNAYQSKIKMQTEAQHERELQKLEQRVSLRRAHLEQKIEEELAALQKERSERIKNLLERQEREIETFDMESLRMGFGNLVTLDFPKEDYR
# CDK7 (human), sequence (P50613 whole entry, looked up): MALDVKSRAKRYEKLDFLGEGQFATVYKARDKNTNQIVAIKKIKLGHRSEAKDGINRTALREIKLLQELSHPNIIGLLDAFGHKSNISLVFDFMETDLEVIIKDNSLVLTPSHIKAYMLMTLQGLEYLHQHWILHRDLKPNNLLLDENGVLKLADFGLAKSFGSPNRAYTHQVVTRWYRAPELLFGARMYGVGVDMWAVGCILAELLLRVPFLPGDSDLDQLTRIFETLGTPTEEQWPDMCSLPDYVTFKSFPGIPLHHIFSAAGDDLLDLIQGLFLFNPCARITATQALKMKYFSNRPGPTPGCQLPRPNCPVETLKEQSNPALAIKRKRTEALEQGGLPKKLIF
# TAOK1 (human), sequence (Q7L7X3 whole entry, looked up): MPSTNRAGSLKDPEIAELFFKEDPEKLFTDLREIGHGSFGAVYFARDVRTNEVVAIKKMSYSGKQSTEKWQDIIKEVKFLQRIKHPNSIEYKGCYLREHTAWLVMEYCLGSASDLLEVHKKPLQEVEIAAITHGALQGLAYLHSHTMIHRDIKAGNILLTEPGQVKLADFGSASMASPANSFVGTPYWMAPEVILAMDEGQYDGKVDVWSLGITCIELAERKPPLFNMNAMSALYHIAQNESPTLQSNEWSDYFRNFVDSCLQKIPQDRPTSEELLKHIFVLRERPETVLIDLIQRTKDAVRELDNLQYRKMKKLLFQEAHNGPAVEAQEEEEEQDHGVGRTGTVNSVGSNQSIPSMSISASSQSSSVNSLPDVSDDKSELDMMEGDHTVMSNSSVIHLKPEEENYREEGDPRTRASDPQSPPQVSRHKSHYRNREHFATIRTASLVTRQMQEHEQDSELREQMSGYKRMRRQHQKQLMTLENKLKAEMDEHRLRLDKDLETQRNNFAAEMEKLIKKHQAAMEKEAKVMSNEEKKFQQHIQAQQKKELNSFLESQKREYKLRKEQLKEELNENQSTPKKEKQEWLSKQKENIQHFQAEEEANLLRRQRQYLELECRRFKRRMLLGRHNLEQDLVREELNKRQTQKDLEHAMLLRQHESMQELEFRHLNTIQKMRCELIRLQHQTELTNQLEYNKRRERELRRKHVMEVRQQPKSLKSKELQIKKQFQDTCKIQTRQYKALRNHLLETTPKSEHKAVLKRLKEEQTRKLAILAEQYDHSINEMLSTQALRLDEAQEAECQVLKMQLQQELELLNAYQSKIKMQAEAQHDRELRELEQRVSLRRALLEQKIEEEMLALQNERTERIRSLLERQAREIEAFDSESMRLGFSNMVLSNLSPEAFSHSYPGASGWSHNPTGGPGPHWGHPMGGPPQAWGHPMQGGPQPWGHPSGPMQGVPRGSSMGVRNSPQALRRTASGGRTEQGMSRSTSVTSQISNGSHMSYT
structure (smiles),measurement,setting,value
CS(=O)(=O)Nc1ccc(-c2ccc(/C=C3\SC(=N)NC3=O)o2)cc1,IC50,[1],274 nM
same,IC50,[2],204 nM
same,"kinase still bound, per cent of control",[3],0.3%
same,"kinase still bound, per cent of control",[4],33%
same,"kinase still bound, per cent of control",[5],21%
same,"kinase still bound, per cent of control",[6],16%
same,"kinase still bound, per cent of control",[7],10%
same,"kinase still bound, per cent of control",[8],30%
same,"kinase still bound, per cent of control",[9],17%
same,"kinase still bound, per cent of control",[10],1.3%
same,"kinase still bound, per cent of control",[11],22%
same,"kinase still bound, per cent of control",[12],12%
same,"kinase still bound, per cent of control",[13],21%
same,"kinase still bound, per cent of control",[14],9%
same,"kinase still bound, per cent of control",[15],28%
same,"kinase still bound, per cent of control",[16],12%
same,"kinase still bound, per cent of control",[17],0%
same,"kinase still bound, per cent of control",[18],7.8%
same,"kinase still bound, per cent of control",[19],34%
same,"kinase still bound, per cent of control",[20],2.8%
same,"kinase still bound, per cent of control",[21],25%
same,"kinase still bound, per cent of control",[22],23%
same,"kinase still bound, per cent of control",[23],0.3%
same,"kinase still bound, per cent of control",[24],14%
same,"kinase still bound, per cent of control",[25],0.65%
same,"kinase still bound, per cent of control",[26],0.9%
same,"kinase still bound, per cent of control",[27],2.8%
same,"kinase still bound, per cent of control",[28],2.9%
same,"kinase still bound, per cent of control",[29],5%
same,"kinase still bound, per cent of control",[30],8.7%
same,"kinase still bound, per cent of control",[31],3%
same,"kinase still bound, per cent of control",[32],7.5%
same,"kinase still bound, per cent of control",[33],8.2%
same,"kinase still bound, per cent of control",[34],0.65%
same,"kinase still bound, per cent of control",[35],13%
same,"kinase still bound, per cent of control",[36],24%
